The numbers were not newly measured in patent US20100086592A1, “MODIFIED DOSAGE FORMS OF TACROLIMUS” (PANACEA BIOTEC LIMITED., priority 2007, published 2010), which cites them from elsewhere.

Like-named read-outs stand apart in the source and are kept apart here.

The conditions of the series: oral.

As to `C=CC[C@@H]1/C=C(\C)C[C@H](C)C[C@H](OC)[C@H]2O[C@@](O)(C(=O)C(=O)N3CCCC[C@H]3C(=O)O[C@H](/C(C)=C/[C@@H]3CC[C@@H](O)[C@H](OC)C3)[C@H](C)[C@@H](O)CC1=O)[C@H](C)C[C@@H]2OC` [tacrolimus, Tacrolimus], the absolute bioavailability runs as follows: (adult heart transplantation patients (N=11)) 23±9%; (adult liver transplant patients (N=17)) 22±6%; (healthy volunteers (N=16)) 18±5%.
